{"source": "patent US7847058B2", "about": "“Method of modulating cell survival, differentiation and/or synaptic plasticity” (priority 2003, dated 2010)", "molecules": {"B1": {"name": "Ig3: recombinant Ig3 module of rat NCAM, residues 191-289, produced in P. pastoris (protein)", "chain": "EAEAYGRILARGEINFKDIQVIVNVPPTVQARQSIVNATANLGQSVTLVCDADGFPEPTMSWTKDGEPIENEEEDDEKHIFSDDSSELTIRNVDKNDEAEYVCI"}, "B2": {"name": "Ig3mut1: Ig3 mutant with substitutions R198A, D249G, E287A (E253A) (protein)", "chain": "EAEAYGRILARGEINFKDIQVIVNVPPTVQAAQSIVNATANLGQSVTLVCDADGFPEPTMSWTKDGEPIENEEEDDEKHIFSGDSSALTIRNVDKNDEAEYVCI"}, "B3": {"name": "Ig1-2-3: recombinant Ig1-2-3 fragment of rat NCAM, residues 1-289 (protein)", "chain": "RVLQVDIVPSQGEISVGESKFFLCQVAGDAKDKDISWFSPNGEKLSPNQQRISVVWNDDDSSTLTIYNANIDDAGIYKCVVTAEDGTQSEATVNVKIFQKLMFKNAPTPQEFKEGEDAVIVCDVVSSLPPTIIWKHKGRDVILKKDVRFIVLSNNYLQIRGIKKTDEGTYRCEGRILARGEINFKDIQVIVNVPPTVQARQSIVNATANLGQSVTLVCDADGFPEPTMSWTKDGEPIENEEEDDEKHIFSDDSSELTIRNVDKNDEAEYVCIAENKAGEQDASIHLKVFAK", "modifications": "rat NCAM fragment amino acid residues 20-308 and cloning artifacts"}, "B4": {"name": "Ig1-2-3mut: Ig1-2-3 mutant containing the substitutions E11A, E16A, and K18A (protein)", "chain": "RVLQVDIVPSQGAISVGASAFFLCQVAGDAKDKDISWFSPNGEKLSPNQQRISVVWNDDDSSTLTIYNANIDDAGIYKCVVTAEDGTQSEATVNVKIFQKLMFKNAPTPQEFKEGEDAVIVCDVVSSLPPTIIWKHKGRDVILKKDVRFIVLSNNYLQIRGIKKTDEGTYRCEGRILARGEINFKDIQVIVNVPPTVQARQSIVNATANLGQSVTLVCDADGFPEPTMSWTKDGEPIENEEEDDEKHIFSDDSSELTIRNVDKNDEAEYVCIAENKAGEQDASIHLKVFAK"}}, "key": {"[1]": {"system": "cerebellar granule neurons (CGN)", "experiment": "Neurite outgrowth of CGN grown as single neurons in primary culture", "format": "cell-based, rat", "conditions": "24 h, different concentrations of the peptide in growth media", "description": "(§1) Cerebellar granule neurons (CGN) were prepared from Wistar rat pups of postnatal day 3. Cerebellar tissue was dissected in modified Krebs-Ringer solution kept on ice, and treated as described for the hippocampal neurons above. All cell cultures were incubated at 37° C. in a humidified atmosphere containing 5% CO2. All animals were handled in accordance with the national guidelines for animal welfare. Primary cultures of CGN were plated at a density of 100,000 cells/cm^2 on poly-L-lysine coated 8-well permanox slides in Neurobasal-A medium (Gibco, BRL) supplemented with 2% (v/v) B27, 0.5% (v/v) glutamax, 100 U/ml penicillin, 100 μg/ml streptomycin and KCl, making the final concentration of KCl in the medium 40 mM. 24 hours after plating, cytosine-β-D-arabinofuranoside (Ara-C; Sigma-Aldrich) was added to a final concentration of 10 μM to avoid proliferation of glial cells, after which the neurons were allowed to differentiate for further six days at 37° C.\n(§2) To evaluate the length of neurites of CGN, the neurons were fixed after 24 hours in culture with 4% (v/v) formaldehyde for 20 minutes and thereafter immunostained using primary rabbit antibodies against GAP-43 and Alexa Fluor secondary goat anti-rabbit antibodies. Images of at least 200 neurons for each group in each individual experiment were obtained systematically by using computer assisted fluorescence microscopy\n(§3) The total neurite length per cell was analyzed using the software ProcessLength (Rønn et al., 2000). Five independent experiments with the Ig3 module, its mutants, and the individual peptides were performed. In each experiment neurites from 200-300 cells were analyzed. In order to compare results of individual experiments and due to the inherently high variability of cell experiments, the data were normalized setting the difference between the average neurite length of PC12-E2 cells grown on NCAM-140-transfected and vector-transfected fibroblasts to 100%. Statistical evaluations were performed using a two-sided Student's t-test."}, "[2]": {"system": "cerebellar granule neurons (CGN)", "experiment": "Neurite outgrowth of CGN in co-culture with fibroblasts with (LBN) or without (LVN) NCAM expression", "format": "cell-based, rat", "conditions": "co-cultures of PC12-E2 or CGN cells with fibroblasts expressing NCAM; cell type not specified"}, "[3]": {"system": "NCAM-expressing PC12-E2 cells", "experiment": "Neurite outgrowth of PC12-E2 cells grown on a confluent monolayer of NCAM-140- or vector-transfected L929 fibroblasts", "format": "cell-based", "conditions": "co-culture 24 h; for NCAM-induced neurite outgrowth of PC12-E2 cells grown on NCAM-140-transfected (LBN) fibroblasts: Ig3 wt, Ig3mut1, Ig3mut2 at 500 μg ml^−1", "description": "The NCAM-expressing pheochromocytoma PC12-E2 cell line (Wu and Bradshaw, 1995) was a gift from Dr. Klaus Seedorf, Hagedorn Research Institute, Denmark. The cells were grown in Dulbecco's Modified Eagle's Medium (DMEM) supplemented with 5% v/v fetal calf serum (FCS) and 10% v/v horse serum (HS), 100 U ml^−1 penicillin, 100 μg ml^−1 streptomycin (all from Gibco BRL) at 37° C. in a humidified atmosphere containing 5% CO2.\nThe fibroblastoid mouse cell line, L929 (European Cell Culture Collection), was stably transfected with the eukaryotic expression vector pHβ-Apr-1-neo (Gunning et al., 1987) containing a full-length cDNA encoding human 140 kDa NCAM-B or the vector alone. […] The cells were routinely grown at 37° C., 5% CO2 in DMEM supplemented with 10% v/v FCS, 100 U ml^−1 penicillin, and 100 μg ml^−1 streptomycin. For analysis of neurite outgrowth, PC12-E2 cells (8,000 cells per well) were seeded on top of a confluent monolayer of transfected fibroblastoid L929 cells in four-well LabTek Tissue Culture Chamber Slides (NUNC). The cells were grown for 24 h in DMEM supplemented with 1% v/v HS, before analysis.\n(§4) Ig3 wt, Ig3mut1, and Ig3mut2 were tested at a concentration of 500 μg ml^−1.\nTo evaluate the length of processes of PC12-E2 cells, the co-cultures were fixed in 4% w/v paraformaldehyde for 25 min. After washing in PBS, cells were blocked with 10% v/v goat serum (DAKO) for 30 min and subsequently incubated for 1 h at room temperature with a mouse monoclonal anti-Thy-1 antibody (Caltag Laboratories) (1:100 in PBS containing 10% v/v goat serum). After washing, cells were incubated for 1 h at room temperature with Alexa-Fluor 568™ goat anti-mouse IgG (Molecular Probes) (1:1000 in PBS containing 10% goat serum). All washes were performed for 10 min in PBS, and repeated three times.\nas §3"}, "[4]": {"system": "cerebellar granule neurons (CGN)", "experiment": "Neurite outgrowth of CGN in co-culture with fibroblasts with (LBN) or without (LVN) NCAM expression", "format": "cell-based, rat", "conditions": "for NCAM-dependent neurite outgrowth of CGN in co-cultures of CGN and LBN-cells: fibroblasts with NCAM expression (LBN); for NCAM-independent neurite outgrowth of CGN in both cultures: single-neuron primary culture 24 h and co-culture with fibroblasts", "description": "as §1, §4, §2, §3"}, "[5]": {"system": "NCAM-mediated cell aggregation", "conditions": "Soroka et al., 2002; cited from earlier work"}, "[6]": {"experiment": "Dynamic light scattering (DLS) of recombinant proteins in solution", "format": "physicochemical", "conditions": "deglycosylated protein, 4 mg ml^−1, PBS pH 7.4, 18° C.", "description": "Measurements were performed using a DynaPro-MS/X instrument (Protein Solutions) at 18° C. The deglycosylated preparations of Ig1-2-3 (4 mg ml^−1), Ig1-2-3mut (4 mg ml^−1) and Ig3 (10 mg ml^−1) in PBS pH 7.4 were used to determine the molecular weight of the recombinant proteins in solution."}}, "note": "“Also recorded” adds a separate entry of the source.", "data": [{"molecule": "DVRRGIKKTD (H-DVRRGIKKTD-NH2) [P2-CD, represents the Ig2-to-Ig3 contact, Ig2 module]", "values": [{"measurement": "neurite outgrowth (differentiation) of single CGN in primary culture", "setting": "[1]", "result": "very capable stimulators"}, {"measurement": "NCAM-stimulated neurite outgrowth in co-cultures", "setting": "[2]", "result": "did not affect"}]}, {"molecule": "SIHLKVFAK (H-SIHLKVFAK-NH2) [P3-G, C-terminal part of the G β-strand of Ig3]", "values": [{"measurement": "NCAM-induced neurite outgrowth of PC12-E2 cells grown on NCAM-140-transfected (LBN) fibroblasts", "setting": "[3]", "result": "inhibitory effects comparable to the effect of Ig3 wt; also recorded: inhibited"}, {"measurement": "neurite outgrowth (differentiation) of single CGN in primary culture", "setting": "[1]", "result": "very capable stimulators"}, {"measurement": "NCAM-stimulated neurite outgrowth in co-cultures", "setting": "[2]", "result": "did not affect"}]}, {"molecule": "GEISVGESKFFL (H-GEISVGESKFFL-NH2) [P1-B, covers the B β-strand of Ig1, represents the Ig1-to-Ig2 contact]", "values": [{"measurement": "NCAM-induced neurite outgrowth of PC12-E2 cells grown on NCAM-140-transfected (LBN) fibroblasts", "setting": "[3]", "result": "inhibitory effects comparable to the effect of Ig3 wt; also recorded: inhibited"}]}, {"molecule": "KHIFSDDSSELTIRNVDKNDE (H-KHIFSDDSSELTIRNVDKNDE-NH2) [P3-DE, covers D and E β-strands and E-F loop of the Ig3 module]", "values": [{"measurement": "NCAM-induced neurite outgrowth of PC12-E2 cells grown on NCAM-140-transfected (LBN) fibroblasts", "setting": "[3]", "result": "inhibitory effects comparable to the effect of Ig3 wt; also recorded: inhibited"}]}, {"molecule": "QIRGIKKTD (H-QIRGIKKTD-NH2) [P2-EF, represents the Ig2-to-Ig3 contact, Ig2 module]", "values": [{"measurement": "neurite outgrowth (differentiation) of single CGN in primary culture", "setting": "[1]", "result": "very capable stimulators"}, {"measurement": "NCAM-stimulated neurite outgrowth in co-cultures", "setting": "[2]", "result": "did not affect"}]}, {"molecule": "QEFKEGEDAVIV (H-QEFKEGEDAVIV-NH2) [P2-A′B, represents the Ig2-to-Ig2 contact]", "values": [{"measurement": "NCAM-dependent neurite outgrowth of CGN in co-cultures of CGN and LBN-cells", "setting": "[4]", "result": "inhibits; also recorded: capable modulating"}, {"measurement": "NCAM-independent neurite outgrowth of CGN in both cultures", "setting": "[4]", "result": "does not affect"}, {"measurement": "neurite outgrowth (differentiation) of single CGN in primary culture", "setting": "[1]", "result": "did not stimulate"}]}, {"molecule": "AFSPNGEKLSPNQ (H-AFSPNGEKLSPNQ-NH2) [P1-CD, represents the Ig1-to-Ig3 contact]", "values": [{"measurement": "NCAM-dependent neurite outgrowth of CGN in co-cultures of CGN and LBN-cells", "setting": "[4]", "result": "inhibits; also recorded: capable modulating"}, {"measurement": "NCAM-independent neurite outgrowth of CGN in both cultures", "setting": "[4]", "result": "does not affect"}, {"measurement": "neurite outgrowth (differentiation) of single CGN in primary culture", "setting": "[1]", "result": "did not stimulate"}]}, {"molecule": "TLVADADGFPEP (H-TLVADADGFPEP-NH2) [P3-B, control peptide covering the B β-strand and B-C loop of the Ig3 module, reference compound]", "values": [{"measurement": "NCAM-induced neurite outgrowth of PC12-E2 cells grown on NCAM-140-transfected (LBN) fibroblasts", "setting": "[3]", "result": "not active"}]}, {"molecule": "GRILARGEINFK (rat NCAM Ig2 fragment amino acid residues 172-182) [P2 peptide]", "values": [{"measurement": "effect on cell aggregation", "setting": "[5]", "result": "inhibitory effect"}]}, {"molecule": "B1", "values": [{"measurement": "NCAM-induced neurite outgrowth of PC12-E2 cells grown on NCAM-140-transfected (LBN) fibroblasts", "setting": "[3]", "result": "clearly inhibits"}, {"measurement": "NCAM-induced neurite outgrowth of PC12-E2 cells grown on NCAM-140-transfected (LBN) fibroblasts", "setting": "[3]; listed as Ig3 wt", "result": "inhibitory effect"}, {"measurement": "neurite outgrowth of PC12-E2 cells grown on vector-transfected (LVN) fibroblasts", "setting": "[3]; NCAM-negative fibroblasts", "result": "does not affect"}]}, {"molecule": "B2", "values": [{"measurement": "NCAM-induced neurite outgrowth of PC12-E2 cells grown on NCAM-140-transfected (LBN) fibroblasts", "setting": "[3]", "result": "inactive"}]}, {"molecule": "B3", "values": [{"measurement": "molecular weight in solution by DLS (oligomeric state)", "setting": "[6]", "result": "~78", "unit": "kDa"}]}, {"molecule": "B4", "values": [{"measurement": "molecular weight in solution by DLS (oligomeric state)", "setting": "[6]", "result": "~34", "unit": "kDa"}]}]}
